# From paper PMC11882969 (Nature Communications, 2025)
# Where “and” joins values, the source holds several entries; their conditions need not be identical. Identical values can stand only once.
# Legend:
# mice [1] = assay: Tail flick, 50 °C water bath; assay type: in vivo, mouse; conditions: individual animals, sheet Figure7b, test not given
# hCB1 = hCB1 (Homo sapiens, UniProt P21554); assay: GloSensor cAMP accumulation assay; assay type: cell-based
# Description: Briefly, hCB1-expressing cells were transfected with the GloSensor cAMP DNA construct overnight. […] The results were analyzed using GraphPad Prism 9. Each experiment was performed in triplicate and functional IC50 values were determined from the mean of three independent experiments.
# mice [2] = assay: Acetone test, cold allodynia after spared nerve injury; assay type: in vivo, mouse
# Description: Mice were placed on a wire mesh and thirty min after an i.p. injection of the compounds we applied a drop (50 μL) of acetone on the ventral aspect of the hindpaw, 5 times every 30 sec. We recorded the number of nocifensive behaviors (paw lifts/licks/shakes/bites) over the 5 applications.
# [3] = target: panel of 320 non-olfactory GPCRs (Homo sapiens, UniProt Q96LB1); assay type: cell-based
# [4] = target: panel of 320 non-olfactory GPCRs (Homo sapiens, UniProt P21453); assay type: cell-based
# [5] = target: panel of 320 non-olfactory GPCRs (Homo sapiens, UniProt Q99788); assay type: cell-based
# [6] = target: panel of 320 non-olfactory GPCRs (Homo sapiens, UniProt Q96P68); assay type: cell-based
# [7] = target: panel of 320 non-olfactory GPCRs (Homo sapiens, UniProt P21554); assay type: cell-based
# [8] = target: panel of 320 non-olfactory GPCRs (Homo sapiens, UniProt Q96P66); assay type: cell-based
# [9] = target: panel of 320 non-olfactory GPCRs (Homo sapiens, UniProt O15218); assay type: cell-based
# [10] = target: panel of 320 non-olfactory GPCRs (Homo sapiens, UniProt Q96RI9); assay type: cell-based
# [11] = target: panel of 320 non-olfactory GPCRs (Homo sapiens, UniProt P30874); assay type: cell-based
# [12] = target: panel of 320 non-olfactory GPCRs (Homo sapiens, UniProt Q16602); assay type: cell-based
# [13] = target: panel of 320 non-olfactory GPCRs (Homo sapiens, UniProt O95838); assay type: cell-based
# [14] = target: panel of 320 non-olfactory GPCRs (Homo sapiens, UniProt P25089); assay type: cell-based
# [15] = target: panel of 320 non-olfactory GPCRs (Homo sapiens, UniProt P30518); assay type: cell-based
# [16] = target: panel of 320 non-olfactory GPCRs (Homo sapiens, UniProt P21728); assay type: cell-based
# [17] = target: panel of 320 non-olfactory GPCRs (Homo sapiens, UniProt P25116); assay type: cell-based
# [18] = target: panel of 320 non-olfactory GPCRs (Homo sapiens, UniProt P08912); assay type: cell-based
# [19] = target: panel of 320 non-olfactory GPCRs (Homo sapiens, UniProt Q99527); assay type: cell-based
# [20] = target: panel of 320 non-olfactory GPCRs (Homo sapiens, UniProt Q8NDV2); assay type: cell-based
# [21] = target: panel of 320 non-olfactory GPCRs (Homo sapiens, UniProt Q5T6X5); assay type: cell-based
# [22] = target: panel of 320 non-olfactory GPCRs (Homo sapiens, UniProt P16473); assay type: cell-based
# mice [23] = test system: mice
# Description: For all behavioral tests, the experimenter was always blind to treatment. Animals were first habituated for 30-60 min in Plexiglas cylinders and then tested 30 min after i.p. or i.t. injection of the compounds. The thermal (Hargreaves, hotplate and tail flick) and ambulatory (rotarod) tests were conducted as described[96]. Briefly, hindpaw thermal sensitivity was measured with a radiant heat source (Hargreaves) or on a hotplate at 52 °C. For the tail flick assay, sensitivity was measured by immersing the tail into a 50 °C water bath. For the ambulatory (rotarod) test, before testing with any compound, mice underwent three trainings on three consecutive days until they reach 300 sec. Each training has three sessions of five min each. Therapeutic window was calculated as the ratio of the minimum dose of side effect phenotype to the minimum dose of analgesic phenotype.
# mice [24] = assay: Catalepsy test, vertical wire mesh; assay type: in vivo, mouse
# Description: Thirty min after an i.p. injection of the compounds, mice were placed on a vertical wire mesh and the latency to move all four paws was recorded.
# [25] = target: T1, CB1R with G protein (Gi1-3, Go) (Homo sapiens, UniProt P21554); assay: GTP turnover assay (GTPase-Glo); assay type: biochemical; conditions: replicates, sheet FigS3c
# T1 construct: a N-terminal FLAG tag and C-terminal histidine tag was added to human full-length CB1; FLAG (N); histidine tag (C); made in house; host or cells: CB1R: Spodoptera frugiperda Sf9; G proteins: Trichoplusia ni Hi5
# Description: Analysis of GTP turnover was performed by using a modified protocol of the GTPase-Glo^TM assay (Promega) described previously. Ligand-bound (10 μM ligand incubated for one hour at room temperature) or apo CB1R (1 μM) was mixed with G protein (1 μM) in 20 mM HEPES, pH 7.5, 50 mM NaCl, 0.01% L-MNG/0.001% CHS, 100 μM TCEP, 10 μM GDP and 10 μM GTP and incubated at room temperature. GTPase-Glo-reagent was added to the sample after incubation for 60 min (Gi1-3) and 20 min for (Go). Luminescence was measured after the addition of detection reagent and incubation for 10 min at room temperature using a SpectraMax Paradigm plate reader.
# Chain of panel of 320 non-olfactory GPCRs (Homo sapiens, UniProt Q99788) (Q99788 whole entry): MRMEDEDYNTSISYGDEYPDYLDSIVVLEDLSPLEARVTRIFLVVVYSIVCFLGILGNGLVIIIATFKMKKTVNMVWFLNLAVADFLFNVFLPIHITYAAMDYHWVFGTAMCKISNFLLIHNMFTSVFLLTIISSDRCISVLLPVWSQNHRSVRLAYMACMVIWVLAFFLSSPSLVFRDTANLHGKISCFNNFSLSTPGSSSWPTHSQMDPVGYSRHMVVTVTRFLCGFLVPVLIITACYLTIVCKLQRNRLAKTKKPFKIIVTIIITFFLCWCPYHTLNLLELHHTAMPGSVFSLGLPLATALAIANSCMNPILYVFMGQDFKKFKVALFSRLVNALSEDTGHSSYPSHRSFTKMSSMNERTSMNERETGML
# Chain of hCB1 (P21554 whole entry): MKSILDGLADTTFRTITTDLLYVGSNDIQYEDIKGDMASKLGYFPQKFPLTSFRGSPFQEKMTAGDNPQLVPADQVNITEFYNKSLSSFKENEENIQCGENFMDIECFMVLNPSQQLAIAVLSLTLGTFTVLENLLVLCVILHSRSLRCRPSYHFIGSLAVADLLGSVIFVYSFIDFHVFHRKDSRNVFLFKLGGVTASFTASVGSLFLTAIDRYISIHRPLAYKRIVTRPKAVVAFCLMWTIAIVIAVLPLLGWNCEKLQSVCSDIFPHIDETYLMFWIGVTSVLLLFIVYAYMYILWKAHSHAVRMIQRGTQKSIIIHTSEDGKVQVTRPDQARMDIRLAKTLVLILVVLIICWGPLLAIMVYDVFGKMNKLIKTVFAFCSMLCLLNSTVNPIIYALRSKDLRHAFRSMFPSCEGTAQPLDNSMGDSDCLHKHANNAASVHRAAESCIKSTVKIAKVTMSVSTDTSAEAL
# T1 sequence (P21554 whole entry): as above
# Chain of panel of 320 non-olfactory GPCRs (Homo sapiens, UniProt P21554) (P21554 whole entry): as above
# Chain of panel of 320 non-olfactory GPCRs (Homo sapiens, UniProt O15218) (O15218 whole entry): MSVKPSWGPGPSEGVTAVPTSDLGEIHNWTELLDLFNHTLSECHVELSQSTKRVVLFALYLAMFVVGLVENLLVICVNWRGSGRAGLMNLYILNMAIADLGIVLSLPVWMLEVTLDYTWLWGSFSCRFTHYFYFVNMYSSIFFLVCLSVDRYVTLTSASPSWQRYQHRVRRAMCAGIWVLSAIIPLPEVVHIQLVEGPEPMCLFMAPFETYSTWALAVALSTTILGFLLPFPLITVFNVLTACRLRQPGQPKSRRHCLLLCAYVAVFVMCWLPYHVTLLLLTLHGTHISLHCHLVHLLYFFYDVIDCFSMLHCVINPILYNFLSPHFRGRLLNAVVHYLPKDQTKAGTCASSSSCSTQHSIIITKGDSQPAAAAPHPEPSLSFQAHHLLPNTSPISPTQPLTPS
# Chain of panel of 320 non-olfactory GPCRs (Homo sapiens, UniProt Q96P68) (Q96P68 whole entry): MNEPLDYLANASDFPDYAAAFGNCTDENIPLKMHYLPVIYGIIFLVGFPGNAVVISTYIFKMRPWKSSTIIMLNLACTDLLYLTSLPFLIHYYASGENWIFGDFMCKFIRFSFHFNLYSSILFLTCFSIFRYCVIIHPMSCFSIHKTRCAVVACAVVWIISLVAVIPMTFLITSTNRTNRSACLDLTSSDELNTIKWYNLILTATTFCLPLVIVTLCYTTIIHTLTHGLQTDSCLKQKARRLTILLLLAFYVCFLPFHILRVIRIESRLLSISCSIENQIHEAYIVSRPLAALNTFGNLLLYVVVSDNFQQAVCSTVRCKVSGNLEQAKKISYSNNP
# Chain of panel of 320 non-olfactory GPCRs (Homo sapiens, UniProt P21728) (P21728 whole entry): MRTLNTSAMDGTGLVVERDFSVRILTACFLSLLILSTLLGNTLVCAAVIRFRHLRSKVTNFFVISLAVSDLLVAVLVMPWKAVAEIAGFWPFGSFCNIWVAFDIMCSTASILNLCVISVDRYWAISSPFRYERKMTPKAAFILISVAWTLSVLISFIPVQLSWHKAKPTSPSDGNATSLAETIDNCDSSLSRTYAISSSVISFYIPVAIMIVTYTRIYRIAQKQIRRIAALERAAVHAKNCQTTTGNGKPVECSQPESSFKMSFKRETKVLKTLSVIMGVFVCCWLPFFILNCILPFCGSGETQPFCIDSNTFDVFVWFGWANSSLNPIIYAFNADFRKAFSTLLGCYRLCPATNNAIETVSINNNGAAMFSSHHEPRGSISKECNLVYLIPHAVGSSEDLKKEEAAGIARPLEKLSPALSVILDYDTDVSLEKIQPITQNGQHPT
# Chain of panel of 320 non-olfactory GPCRs (Homo sapiens, UniProt Q96LB1) (Q96LB1 whole entry): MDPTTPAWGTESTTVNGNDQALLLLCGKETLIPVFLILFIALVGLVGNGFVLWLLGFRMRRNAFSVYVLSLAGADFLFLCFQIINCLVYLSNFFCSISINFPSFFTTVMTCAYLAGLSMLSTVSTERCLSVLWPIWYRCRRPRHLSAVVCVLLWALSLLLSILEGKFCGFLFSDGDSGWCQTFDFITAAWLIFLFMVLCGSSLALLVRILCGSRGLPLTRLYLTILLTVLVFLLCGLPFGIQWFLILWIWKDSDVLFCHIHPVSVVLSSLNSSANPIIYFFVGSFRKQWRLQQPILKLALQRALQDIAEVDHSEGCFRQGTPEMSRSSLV
# Chain of panel of 320 non-olfactory GPCRs (Homo sapiens, UniProt Q5T6X5) (Q5T6X5 19-926): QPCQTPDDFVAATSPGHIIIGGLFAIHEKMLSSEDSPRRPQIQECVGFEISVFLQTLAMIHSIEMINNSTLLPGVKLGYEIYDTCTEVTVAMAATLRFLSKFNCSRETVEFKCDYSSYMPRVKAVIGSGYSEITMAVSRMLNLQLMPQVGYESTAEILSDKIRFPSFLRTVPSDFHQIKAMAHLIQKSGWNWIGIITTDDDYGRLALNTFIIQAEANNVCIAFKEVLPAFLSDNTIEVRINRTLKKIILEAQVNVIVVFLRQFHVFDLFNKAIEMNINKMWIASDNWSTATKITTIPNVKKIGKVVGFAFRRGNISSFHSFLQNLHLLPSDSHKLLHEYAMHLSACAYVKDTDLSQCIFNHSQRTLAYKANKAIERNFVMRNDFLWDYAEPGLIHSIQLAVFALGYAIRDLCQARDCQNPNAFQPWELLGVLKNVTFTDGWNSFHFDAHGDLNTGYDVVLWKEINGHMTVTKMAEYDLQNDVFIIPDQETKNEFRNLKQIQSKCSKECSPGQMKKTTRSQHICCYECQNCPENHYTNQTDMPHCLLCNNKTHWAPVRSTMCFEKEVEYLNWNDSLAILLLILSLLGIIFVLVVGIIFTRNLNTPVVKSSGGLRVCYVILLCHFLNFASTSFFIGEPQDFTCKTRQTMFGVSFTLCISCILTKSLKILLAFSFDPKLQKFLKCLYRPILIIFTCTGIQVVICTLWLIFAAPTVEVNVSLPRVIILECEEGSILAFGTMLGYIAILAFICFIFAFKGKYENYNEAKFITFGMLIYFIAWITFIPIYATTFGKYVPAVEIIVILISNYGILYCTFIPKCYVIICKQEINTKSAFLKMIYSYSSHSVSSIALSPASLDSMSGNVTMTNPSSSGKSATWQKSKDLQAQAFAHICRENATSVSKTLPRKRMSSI
# Chain of panel of 320 non-olfactory GPCRs (Homo sapiens, UniProt P08912) (P08912 whole entry): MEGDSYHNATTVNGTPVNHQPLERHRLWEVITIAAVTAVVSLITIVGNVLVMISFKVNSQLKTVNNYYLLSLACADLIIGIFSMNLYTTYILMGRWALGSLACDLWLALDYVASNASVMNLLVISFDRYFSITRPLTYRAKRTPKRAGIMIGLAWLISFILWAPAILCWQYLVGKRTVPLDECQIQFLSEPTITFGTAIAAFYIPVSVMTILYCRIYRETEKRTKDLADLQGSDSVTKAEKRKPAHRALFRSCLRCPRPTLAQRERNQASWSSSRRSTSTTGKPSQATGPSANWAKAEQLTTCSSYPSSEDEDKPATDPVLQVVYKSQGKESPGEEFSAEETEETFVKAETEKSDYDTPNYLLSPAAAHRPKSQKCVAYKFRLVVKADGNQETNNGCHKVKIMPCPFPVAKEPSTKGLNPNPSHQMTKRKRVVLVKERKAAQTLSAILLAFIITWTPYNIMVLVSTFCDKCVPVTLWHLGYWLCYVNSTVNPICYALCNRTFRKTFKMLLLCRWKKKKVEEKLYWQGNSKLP
# Chain of panel of 320 non-olfactory GPCRs (Homo sapiens, UniProt Q99527) (Q99527 whole entry): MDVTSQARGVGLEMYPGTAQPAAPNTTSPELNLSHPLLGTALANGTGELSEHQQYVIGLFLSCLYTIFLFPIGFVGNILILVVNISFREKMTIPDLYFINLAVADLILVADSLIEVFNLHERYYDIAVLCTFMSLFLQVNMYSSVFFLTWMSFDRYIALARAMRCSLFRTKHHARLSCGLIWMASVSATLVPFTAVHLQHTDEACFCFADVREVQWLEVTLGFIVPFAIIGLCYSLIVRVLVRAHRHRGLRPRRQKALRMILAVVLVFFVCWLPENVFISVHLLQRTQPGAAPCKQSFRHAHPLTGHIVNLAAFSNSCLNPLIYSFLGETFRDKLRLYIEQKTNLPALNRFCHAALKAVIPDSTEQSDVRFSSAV
# Chain of panel of 320 non-olfactory GPCRs (Homo sapiens, UniProt P25116) (P25116 22-425): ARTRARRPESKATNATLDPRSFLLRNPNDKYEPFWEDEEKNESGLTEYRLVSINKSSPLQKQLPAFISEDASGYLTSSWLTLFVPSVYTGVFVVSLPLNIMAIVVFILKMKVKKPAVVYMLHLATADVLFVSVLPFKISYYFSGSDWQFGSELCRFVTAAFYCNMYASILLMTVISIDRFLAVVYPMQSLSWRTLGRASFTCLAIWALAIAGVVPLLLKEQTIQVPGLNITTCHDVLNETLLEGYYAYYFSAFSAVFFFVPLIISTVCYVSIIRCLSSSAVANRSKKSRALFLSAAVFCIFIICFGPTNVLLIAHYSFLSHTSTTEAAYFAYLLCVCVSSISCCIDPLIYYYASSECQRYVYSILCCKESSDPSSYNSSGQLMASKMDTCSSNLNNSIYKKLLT
smiles,measurement,setting,value
COC(=O)C(C)(NC(=O)c1cc(C)n(-c2cccc(C(F)(F)F)c2)n1)c1cccs1 (stereo not shown) [‘4042],Response relative to baseline (baseline about 100),"mice [1]; '4042 0.05 mg/kg, 0.05 mg/kg",262 and 191 and 164 and 198 and 183
same,Response relative to baseline (baseline about 100),"mice [1]; '4042 0.1 mg/kg, 0.1 mg/kg",419.4 and 155.9 and 181.4 and 122.5 and 239.8
same,Emax,hCB1,91%
same,Glosensor cAMP pEC50,hCB1,10.4 [10.3 – 10.5]
Cc1cc(C(=O)NC(C)(c2ccco2)c2ccco2)nn1-c1cccc(C(F)(F)F)c1 [‘4936],"acetone test response after spared nerve injury (Figure5b), individual animals",mice [2]; Dose 0.2 mg/kg,92 and 82 and 36 and 30 and 65
same,effect on acetone-induced nocifensive behaviors,"mice [2]; spared nerve injury, i.p.",strongly reduced spared nerve injury-induced cold allodynia
same,Fold of Basal RLU,[3],1.3 fold and 1.2 fold and 1.7 fold and 1.4 fold
same,Fold of Basal RLU,[4],1.2 fold and 0.7 fold and 1.1 fold
same,Fold of Basal RLU,[5],1.1 and 1 and 0.9
same,Fold of Basal RLU,[6],1.3 fold and 1.5 fold and 2.1 fold
same,Fold of Basal RLU,[7],5.5 and 5.4 and 5.6
same,Fold of Basal RLU,[8],1.2 fold and 1.3 fold
same,Fold of Basal RLU,[9],1.7 fold and 1.9 fold and 1.4 fold and 2.5 fold
same,Fold of Basal RLU,[10],0.8 and 1.3 and 1.4
same,Fold of Basal RLU,[11],0.7 and 1
same,Fold of Basal RLU,[12],1 and 0.6 and 0.5
same,Fold of Basal RLU,[13],1 fold and 0.8 fold and 0.9 fold
same,Fold of Basal RLU,[14],1.2 fold and 1.3 fold and 1.8 fold
same,Fold of Basal RLU,[15],0.9 fold and 1.3 fold and 1.6 fold
same,Fold of Basal RLU,[16],0.7 and 0.9 and 0.8
same,Fold of Basal RLU,[17],1.4 fold and 1.3 fold and 1.1 fold
same,Fold of Basal RLU,[18],1 fold and 1.1 fold and 0.9 fold and 0.8 fold
same,Fold of Basal RLU,[19],1.9 and 1.3 and 1.5 and 1.4
same,Fold of Basal RLU,[20],2 fold and 1.4 fold and 2.8 fold and 1.7 fold
same,Fold of Basal RLU,[21],0.9 fold and 1.1 fold and 0.6 fold and 1 fold
same,Fold of Basal RLU,[22],0.7 and 0.6 and 0.9
same,"therapeutic window, Acetone","mice [23]; Figure 6e, vs rotarod",10
same,"therapeutic window, Hot Plate","mice [23]; Figure 6e, vs rotarod",4
same,"therapeutic window, analgesia vs catalepsy",mice [23]; Figure 6f,greater than 5
same,"catalepsy (Figure6c), individual animals",mice [24]; 0.2 mg/kg dose,0.9 and 0.7 and 0.8 (2×) and 0.4
same,"catalepsy (Figure6c), individual animals",mice [24]; 0.5 mg/kg dose,0.6 (3×) and 0.8 and 0.9
same,"catalepsy (Figure6c), individual animals",mice [24]; 1 mg/kg dose,0.7 and 0.6 and 1.2 and 1.1 (2×)
same,"catalepsy, latency to move all four paws","mice [24]; i.p., ‘1350 at 0.2 or 0.5 mg/kg, haloperidol 1.0 mg/kg",does not induce catalepsy at any tested dose up to 1 mg/kg
COC(=O)[C@](C)(NC(=O)c1cc(C)n(-c2cccc(C(F)(F)F)c2)n1)c1cccs1 [‘8690],"GTP turnover, normalised (FUB about 100)",[25]; Gi2,16.9643 and 39.0749 and 37.2739 and 44.0104 and 47.8141 and 43.1917
same,"GTP turnover, normalised (FUB about 100)",[25]; Gi3,40.931 and 39.8765 and 45.2237 and 46.1547 and 48.6065 and 44.9238
same,"GTP turnover, normalised (FUB about 100)",[25]; Goa,61.5575 and 70.4664 and 69.7244 and 64.4739 and 72.6259 and 67.4132
same,"GTP turnover, normalised (FUB about 100)","[25]; first block, G protein not printed (Gi2, Gi3, Goa follow)",38.198 and 43.143 and 41.7234 and 41.9514 and 39.8163 and 42.5776
COC(=O)C(NC(=O)c1cc(C)n(-c2cccc(C(F)(F)F)c2)n1)c1cccs1 (stereo not shown) [‘60154],EC50,hCB1,25.2 nM
same,Emax,hCB1,82%
same,Glosensor cAMP pEC50,hCB1,7.6 [7.4 – 7.8]
